According to patent US4483989A, “Synthesis of pyrido[4,3-b]carbazole derivatives” (priority 1973, dated 1984):

Assays:
[1] = Metabolic studies in mice
mouse L 1210 leukemia [2] = assay: L1210 leukemia in mice: inoculum of 10^5 cells, single dose of compound 24 hours later; format: in vivo; settings: for % of killed cells / ILS (increased life span) % / Mean survival in days for treated mice: inoculum 10^5 L1210 cells; for Cured animals: cured/total; for Criterion (i): ILS higher than 100%: intraperitoneal injection of 10^5 cells
Text: The experimental tumor mouse L 1210 leukemia is commonly used to evaluate the effects of all the antitumor compounds now used in human therapeutics,as was described, for example, by C. C. ZUBROD in Proc. Nat. Acad. Sci. USA 69, 1972, pp. 1042-1047. This experimentally formed tumoral system permits very accurate quantitative evaluation of the activity of the compound tested and also, consequently, an objective comparison of the respective activities of various compounds, for example, according to the methods described by H. E. SKIPPER, F. M. SCHABEL Jr. and W. S. WILCOX in Cancer Chemiother. Rep. 1964, pp. 1-111 and 45, 1965, pp. 5-28.
(§1) The mice were randomized in each experimental series. A first routine experiment enable the death rate by toxicity to be determined and thus established the sublethal doses.
According to the convention in force in this field, the animals which survived longer than 45 days after inoculation of tumoral cells were considered to be cured.
(§2) To evaluate the therapeutic activity of the compounds of the invention, doses of said compound were expressed basing them on the 30 days sublethal dose which was fixed at 1.
A--A tumoral inoculum of 10^5 L1210 leukemia cells was administered by the intraperitoneal way to twenty 2 to 3 months old DBA/2 strain female mice. 24 hours later, half of said mice received a single intraperitoneal injection of a variable dose of the compound to be tested and the same volume of solvent was administered to the other half of the mice by the same way; this latter half of the group of mice was therefore used as the control series. The mice were randomized in each experimental series.
Animals surviving for longer than 45 days were considered to be cured.

[3] = for LDo (highest non lethal dose / sublethal dose) for mice: route not given; for DLo (I.P.): single i.p. injection
Text: as §1, §2

mouse L 1210 leukemia [4] = assay: L1210 leukemia in mice: inoculum of 10^5 cells, single dose of compound 24 hours later; format: in vivo; settings: for Criterion (iv): persistence of the antileukemic action after an intravenous injection: L1210 in vivo
Solubility = format: physicochemical
[5] = I.P., dose 0.1 of the sublethal dose
[6] = I.P., dose 1 (the sublethal dose)
[7] = I.P., dose 0.002 of the sublethal dose
[8] = I.P., dose 0.01 of the sublethal dose
[9] = I.P., dose 0.02 of the sublethal dose
[10] = I.P., dose 0.2 of the sublethal dose

Cc1c2ccncc2c(C)c2c1[nH]c1ccccc12 [ellipticine]
Metabolism [1]: hydroxylated in the 9-position and then glucuroconjugated

Cc1c2c[n+](C)ccc2c(C)c2c1c1cc(O)ccc1n2C [9-hydroxy-2,6-dimethyl-ellipticinium acetate]
Therapeutic index (mouse L 1210 leukemia [2]; L1210): extremely high
LDo (highest non lethal dose / sublethal dose) for mice [3]: 50 mg/kg

9-hydroxy-2(β-diisopropylamino-ethyl)-ellipticiniu acetate
% of killed cells (mouse L 1210 leukemia [2]; [5]): < 90%
ILS (increased life span) % (mouse L 1210 leukemia [2]; [5]): 110%
Mean survival in days for treated mice (mouse L 1210 leukemia [2]; [5]): 10.7 days
% of killed cells (mouse L 1210 leukemia [2]; [6]): < 90%
ILS (increased life span) % (mouse L 1210 leukemia [2]; [6]): 110%
Mean survival in days for treated mice (mouse L 1210 leukemia [2]; [6]): 10.9 days
Criterion (iv): persistence of the antileukemic action after an intravenous injection (mouse L 1210 leukemia [4]): +

CC[n+]1ccc2c(C)c3[nH]c4ccc(O)cc4c3c(C)c2c1 [9-hydroxy-2-ethyl ellipticinium acetate, 9-hydroxy-2-ethyl-ellipticinium acetate]
ILS (increased life span) % (mouse L 1210 leukemia [2]; [7]): 114%
ILS (increased life span) % (mouse L 1210 leukemia [2]; [8]): 122%
ILS (increased life span) % (mouse L 1210 leukemia [2]; [9]): 132%
ILS (increased life span) % (mouse L 1210 leukemia [2]; I.P., dose 0.05 of the sublethal dose): 132%
ILS (increased life span) % (mouse L 1210 leukemia [2]; [5]): 175%
ILS (increased life span) % (mouse L 1210 leukemia [2]; [10]): 219%
ILS (increased life span) % (mouse L 1210 leukemia [2]; I.P., dose 0.4 of the sublethal dose): 165%
ILS (increased life span) % (mouse L 1210 leukemia [2]; I.P., dose 0.6 of the sublethal dose): 188%
ILS (increased life span) % (mouse L 1210 leukemia [2]; [6]): 157%
ILS (increased life span) % (mouse L 1210 leukemia [2]; I.V., dose 0.33 of the sublethal dose): 118%
Chemotherapeutic index (mouse L 1210 leukemia [2]; L1210 in vivo): 75
Criterion (ii): occurrence of cured animals (mouse L 1210 leukemia [2]; L1210 in vivo): +
Increased life span (ILS) (mouse L 1210 leukemia [2]; L1210 in vivo, dose LDo /5): 119%
Cured animals (mouse L 1210 leukemia [2]; L1210 in vivo, dose LDo /5): 3/20
Criterion (i): ILS higher than 100% (mouse L 1210 leukemia [2]; L1210 in vivo): + (increased life span (ILS) higher than 100% after intraperitoneal injection of 10^5 cells)
ILS (increased life span) % (mouse L 1210 leukemia [4]; I.V., dose 1 (the sublethal dose), inoculum 10^5 L1210 cells): 124%
Criterion (iv): persistence of the antileukemic action after an intravenous injection (mouse L 1210 leukemia [4]): +
DL100 (I.P.) ([3]; mice, I.P.): 100 mg/kg
DL 100 (I.V.) ([3]; mice, I.V.): 20 mg/kg
DLo (I.V.) ([3]; mice, I.V.): 15 mg/kg
DLo (I.P.) ([3]; mice): 50 mg/kg

Cc1c2cc[n+](CCN3CCCCC3)cc2c(C)c2c1[nH]c1ccc(O)cc12 [9-hydroxy-2(β-piperidino-ethyl)-ellipticinium acetate]
ILS (increased life span) % (mouse L 1210 leukemia [2]; [7]): 113%
ILS (increased life span) % (mouse L 1210 leukemia [2]; I.P., dose 0.005 of the sublethal dose): 119%
ILS (increased life span) % (mouse L 1210 leukemia [2]; [8]): 124%
ILS (increased life span) % (mouse L 1210 leukemia [2]; [9]): 131%
ILS (increased life span) % (mouse L 1210 leukemia [2]; [5]): 181%
ILS (increased life span) % (mouse L 1210 leukemia [2]; [10]): 202%
ILS (increased life span) % (mouse L 1210 leukemia [2]; [6]): 171%
ILS (increased life span) % (mouse L 1210 leukemia [2]; I.V., dose 1 (the sublethal dose)): 131%
Chemotherapeutic index (mouse L 1210 leukemia [2]; L1210 in vivo): 100
Criterion (ii): occurrence of cured animals (mouse L 1210 leukemia [2]; L1210 in vivo): +
Increased life span (ILS) (mouse L 1210 leukemia [2]; L1210 in vivo, dose LDo /5): 102%
Cured animals (mouse L 1210 leukemia [2]; L1210 in vivo, dose LDo): 5/15
Criterion (i): ILS higher than 100% (mouse L 1210 leukemia [2]; L1210 in vivo): + (increased life span (ILS) higher than 100% after intraperitoneal injection of 10^5 cells)
Criterion (iv): persistence of the antileukemic action after an intravenous injection (mouse L 1210 leukemia [2]; L1210 in vivo, intravenous injection): +
DLo (I.V.) ([3]; mice, I.V.): 10 mg/kg
DLo (I.P.) ([3]; mice): 50 mg/kg

CC(=O)Oc1ccc2c(c1)c1c(C)c3c[n+](C)ccc3c(C)c1n2C [9-acetoxy-2,6-dimethyl-ellipticinium acetate]
Antitumoral activity on L1210 leukemia (comparison in words) (mouse L 1210 leukemia [2]; mouse, in vivo): comparable with that of the 9-hydroxy-2,6-dimethyl-ellipticinium acetate
LDo (highest non lethal dose / sublethal dose) for mice [3]: 50 mg/kg

Cc1c2c[n+](C)ccc2c(C)c2c1c1cc(O)ccc1n2C [9-hydroxy-6-methyl-ellipticinium iodomethylate]
Solubility (Solubility): much more soluble than the 9-hydroxy-ellipticinium iodomethylate
